The nature of data set [1]: Metabolic stability evaluation, liver microsome assay (HLM). The class given is in vitro ADME. The conditions noted are these: pH 7.4, human liver microsomes 0.5 mg/mL, compound 1 μM, NADPH, 37° C. How it is done: (§1) Microsome assay: human liver microsomes (HLM): 0.5 mg/mL, Xenotech; rat liver microsomes (RLM): 0.5 mg/mL, Xenotech; mice liver microsomes (MLM): 0.5 mg/mL, Xenotech; coenzyme (NADPH/NADH): 1 mM, Sigma Life Science; magnesium chloride: 5 mM, 100 mM phosphate buffer (pH is 7.4).
(§2) Preparation of stock solution: a certain amount of powder of the example compound and the reference compound were accurately weighed, and dissolved to 5 mM with DMSO, respectively.
(§3) Preparation of phosphate buffer (100 mM, pH7.4): Pre-formulated 150 mL 0.5 M potassium dihydrogen phosphate and 700 mL 0.5 M dipotassium hydrogen phosphate solution were mixed, then the pH of the mixture was adjusted to 7.4 with 0.5 M dipotassium hydrogen phosphate solution. Before use, 5-fold dilution was made with ultra-pure water, and magnesium chloride was added to afford phosphate buffer (100 mM), which containing 100 mM potassium phosphate, 3.3 mM magnesium chloride, pH is 7.4.
(§4) NADPH regeneration system solution (containing 6.5 mM NADP, 16.5 mM G-6-P, 3 U/mL G-6-P D, 3.3 mM magnesium chloride) was prepared and placed on wet ice before use.
(§5) Preparation of stop solution: Acetonitrile solution containing 50 ng/mL propranolol hydrochloride and 200 ng/mL tolbutamide (internal standard). 25057.5 μL phosphate buffer (pH 7.4) was taken into a 50 mL centrifuge tube, and 812.5 μL human liver microsome was added, mixed well to afford liver microsome diluent with a protein concentration of 0.625 mg/mL. 25057.5 μL phosphate buffer (pH 7.4) was taken into a 50 mL centrifuge tube, and 812.5 μL SD rat liver microsome was added, respectively, mixed well to afford liver microsome diluent with a protein concentration of 0.625 mg/mL. 25057.5 μL phosphate buffer (pH 7.4) was taken into a 50 mL centrifuge tube, and 812.5 μL mice liver microsome was added, respectively, mixed well to afford liver microsome diluent with a protein concentration of 0.625 mg/mL.
(§6) Incubation of the sample: The stock solutions of the corresponding compounds were diluted to 0.25 mM with an aqueous solution containing 70% acetonitrile as working solutions for use. 398 μL of human liver microsome or rat liver microsome or mice liver microsome diluent was taken and added to a 96-well incubation plate (N=2), respectively, and 2 μL of 0.25 mM working solution was then added respectively, and mixed well.
(§7) Determination of metabolic stability: 300 μL of pre-chilled stop solution was added to each well of a 96-well deep well plate and the plate was placed on ice as a stop plate. The 96-well incubation plate and NADPH regeneration system were placed in a 37° C. water bath box, shook at 100 rpm, and pre-incubated for 5 min. 80 μL of incubation solution was taken from each well of the incubation plate and added to the stop plate, mixed well, and 20 μL of NADPH regeneration system solution was supplemented, the resulted solution was considered as sample at 0 min. Then 80 μL of NADPH regeneration system solution was added to each well of the incubation plate to start the reaction and started timing. The reaction concentration of the corresponding compound is 1 μM, and the protein concentration is 0.5 mg/mL. 100 μL reaction solution was taken at 10, 30, 90 min of reaction, respectively, and added into stop plate, the reaction was stopped with 3 min vortex. The stop plate was centrifuged at 5000×g, 4° C. for 10 min. 100 μL of supernatant was taken to a 96-well plate where 100 μL of distilled water was added in advance, mixed well, sample analysis was subjected by LC-MS/MS.
(§8) Data analysis: LC-MS/MS system was used to detect peak area of corresponding compound and internal standard, peak area ratio of compound and internal standard was calculated.
(§9) [formula] t1/2(min); CLint(μL/min/mg).

A further data set relates to Ba/F3 KIF5B-RET^V804M. The data set is described as follows: Cytotoxicity assay (CellTiter-Glo), Ba/F3 KIF5B-RET V804M. The data set is classed as cell-based. The note with it: Mus musculus, BaF3; cell viability, 72 hours, CTG.
The nature of data set [2]: Metabolic stability evaluation, liver microsome assay (RLM). The class given is in vitro ADME, SD rat. The note with it: Sprague-Dawley, pH 7.4, rat liver microsomes 0.5 mg/mL, compound 1 μM, NADPH, 37° C. On the procedure:
as §1, §2, §3, §4, §5, §6, §7, §8, §9

Data set [3] is described as follows: Metabolic stability evaluation, liver microsome assay (MLM). The data set is classed as in vitro ADME. The conditions noted are these: mouse, mouse liver microsomes, pH 7.4, mice liver microsomes 0.5 mg/mL, compound 1 μM, NADPH, 37° C. How it is done: as §1, §2, §3, §4, §5, §6, §7, §8, §9
The subject of another data set is Ba/F3 parental. The data set is described as follows: cells. The conditions noted are these: Mus musculus, BaF3, 72 h, read-out: IC50 (nM) Ba/F3 parental.
For a further data set, the system named is Ba/F3 KIF5B-RET. The experiment in a line: Cytotoxicity assay (CellTiter-Glo), Ba/F3 KIF5B-RET. The data set is classed as cell-based. The conditions noted are these: Mus musculus, BaF3; cell viability, 72 hours, CTG.

In the case of `[2H]C([2H])([2H])Oc1ccc(C([2H])([2H])N2C3CC2CN(c2ccc(-c4cc(OCC(C)(C)O)cn5ncc(C#N)c45)cn2)C3)cn1` [Example 13, 6-(2-hydroxy-2-methylpropoxy)-4-(6-(6-((6-(methoxy-d3)pyridin-3-yl)methyl-d2)-3,6-diazabicyclo[3.1.1]heptan-3-yl)pyridin-3-yl)pyrazolo[1,5-a]pyridine-3-carbonitrile], the intrinsic metabolic clearance (microsomal CLint) at 1 μM was determined as 92.2 µL/min/mg in data set [1], 10.8 µL/min/mg in data set [2] and 42.8 µL/min/mg in data set [3]. For the same compound, the half-life at 1 μM in data set [1] (read-out: HLM t1/2) came out at 15 min; in data set [2] (read-out: RLM t1/2), 128 min; in data set [3] (read-out: MLM t1/2) it was 32.4 min. In addition, the IC50 in the data set with Ba/F3 KIF5B-RET^V804M is 90 nM; with Ba/F3 parental, over 10000 nM; in the data set on Ba/F3 KIF5B-RET it was 23.5 nM.

(Values after US12129266B2, “Substituted pyrazolo[1,5-a]pyridine compound, composition containing the same and use thereof” (Shenzhen TargetRx, Inc., priority 2018, dated 2024).)
